Experimental data published in patent publication US20250263370A1 (Tay Therapeutics Limited, priority 2022, published 2025).
“Also recorded” adds a separate entry of the source. Where two headings read alike, the source gives them in different places.

Experiment: Beagle dog PK study 2 of Example 101 (HPβCD based formulation, IV), with clinical observations
Format: in vivo
Details: for concentration at 0.083 h / concentration at 0.25 h / concentration at 0.5 h / concentration at 1 h / concentration at 2 h / concentration at 4 h / concentration at 8 h / concentration at 24 h / AUC(0-inf) / AUC(0-t) / C0 / half-life / MRT inf / Vd: beagle, dog, plasma, iv, 1 mg/kg; for MRT inf: read-out: MRTInf—obs; for Vd: read-out: Vss—obs
Procedure: The purpose of this study was to examine the pharmacokinetics of Example 101 in beagle dogs. […] An oral PK study was also undertaken in Lewis rats—see Experimental Method C.
Body weight was recoded prior to dosing, and detailed clinical observations were made prior to dosing and throughout the study, as needed.
78.646 mL of HPβCD (20% solution w/v) was then added with vortex and sonication.
Blood samples (˜0.3 mL) were collected according to a schedule (shown below) by venipuncture of peripheral veins except for the dosing vein, and EDTA-K2 was used as anticoagulant. Within 30 minutes of collection, the samples were centrifuged at approximately 2000×g for 10 minutes at 4° C. to obtain blood plasma. The plasma samples were immediately divided into two aliquots (˜75 μL each), transferred to a cryogenic vial, and stored in a freezer at ˜75±15° C. prior to analysis.
Blood samples were collected at 0.083, 0.25, 0.5, 1, 2, 4, 8, and 24 h following the initial dosing (0 h).
The experiments were conducted on a Shimadzu DGU-20A5R and AB API 5500+LC/MS/MS instrument with an Agilent Poroshell EC-C18 4 μm (50×2.1 mm) column. A gradient of 95% water (0.1% formic acid)/95% acetonitrile (0.1% formic acid) was used as the mobile phase. The sample injection volume was 1 μL, and the flow rate was 0.6 mL/min. The gathered data were used for pharmacokinetic calculations using T½, C0, AUClast, AUCinf, MRTinf, CI, Vss, and Number of Points for Regression as parameters.

[1] = beagle dogs, IV, 0.5 mg/mL in HPβCD based formulation, PK study 2
[2] = dog PK study 2, IV 1 mg/kg, HPβCD, Test Animal 1, read-out: Plasma concentration
[3] = dog PK study 2, IV 1 mg/kg, HPβCD, Test Animal 2, read-out: Plasma concentration
[4] = dog PK study 2, IV 1 mg/kg, HPβCD, Test Animal 3, read-out: Plasma concentration
[5] = dog PK study 2, IV 1 mg/kg, HPβCD, mean, read-out: Average plasma concentration, Mean
[6] = dog PK study 2, IV 1 mg/kg, HPβCD, Test Animal 1
[7] = dog PK study 2, IV 1 mg/kg, HPβCD, Test Animal 2
[8] = dog PK study 2, IV 1 mg/kg, HPβCD, Test Animal 3
[9] = dog PK study 2, IV 1 mg/kg, HPβCD, mean

CNC(=O)c1[nH]c(C(=O)NC2CCC2)cc1O[C@@H](C)c1ccccc1 (stereo in doubt) [Example 101, N^5-cyclobutyl-N^2-methyl-3-(1-phenylethoxy)-1H-pyrrole-2,5-dicarboxamide]
clinical observations [1]: soft feces 8 hours after administration; also recorded: No other clinical observations were made; also recorded: fewer clinical observations in response to Example 101 when prepared in HPβCD
plasma concentration as a function of time (FIGS. 1D-1E) [1]: Plasma concentrations decreased similarly over the first 2 h post-administration
concentration at 0.083 h [2]: 1270 ng/mL
concentration at 0.083 h [3]: 1460 ng/mL
concentration at 0.083 h [4]: 1580 ng/mL
concentration at 0.083 h [5]: 1440 ng/mL
concentration at 0.25 h [2]: 721 ng/mL
concentration at 0.25 h [3]: 820 ng/mL
concentration at 0.25 h [4]: 985 ng/mL
concentration at 0.25 h [5]: 842 ng/mL
concentration at 0.5 h [2]: 322 ng/mL
concentration at 0.5 h [3]: 498 ng/mL
concentration at 0.5 h [4]: 702 ng/mL
concentration at 0.5 h [5]: 507 ng/mL
concentration at 1 h [2]: 187 ng/mL
concentration at 1 h [3]: 140 ng/mL
concentration at 1 h [4]: 320 ng/mL
concentration at 1 h [5]: 216 ng/mL
concentration at 2 h [2]: 49.3 ng/mL
concentration at 2 h [3]: 54.1 ng/mL
concentration at 2 h [4]: 159 ng/mL
concentration at 2 h [5]: 87 ng/mL
concentration at 4 h [2]: 4.83 ng/mL
concentration at 4 h [3]: 10.8 ng/mL
concentration at 4 h [4]: 42.1 ng/mL
concentration at 4 h [5]: 19.2 ng/mL
concentration at 8 h [2]: 0 ng/mL
concentration at 8 h [3]: 2.5 ng/mL
concentration at 8 h [4]: 6.58 ng/mL
concentration at 8 h [5]: 3.03 ng/mL
concentration at 24 h (dog PK study 2, IV 1 mg/kg, HPβCD, 24 h, Test Animal 1): 0 ng/mL
concentration at 24 h (dog PK study 2, IV 1 mg/kg, HPβCD, 24 h, Test Animal 2): 0 ng/mL
concentration at 24 h (dog PK study 2, IV 1 mg/kg, HPβCD, 24 h, Test Animal 3): 0 ng/mL
AUC(0-inf) [6]: 723 ng·h/mL
AUC(0-t) [6]: 719 ng·h/mL
C0 [6]: 1680 ng/mL
half-life [6]: 34.4 min
MRT inf [6]: 36.4 min
Vd [6]: 0.838 L/kg
AUC(0-inf) [7]: 850 ng·h/mL
AUC(0-t) [7]: 844 ng·h/mL
C0 [7]: 1940 ng/mL
half-life [7]: 84.6 min
MRT inf [7]: 45.1 min
Vd [7]: 0.886 L/kg
AUC(0-inf) [8]: 1380 ng·h/mL
AUC(0-t) [8]: 1370 ng·h/mL
C0 [8]: 2000 ng/mL
half-life [8]: 79.8 min
MRT inf [8]: 72 min
Vd [8]: 0.868 L/kg
AUC(0-inf) [9]: 984 ng·h/mL
AUC(0-t) [9]: 977 ng·h/mL
C0 [9]: 1880 ng/mL
half-life [9]: 66 min
MRT inf [9]: 51 min
Vd [9]: 0.864 L/kg
Average plasma concentration, Mean (dog PK study 2, IV 1 mg/kg, HPβCD, 24 h, mean): BLOQ
AUClast/D [6]: 719 (ng · h/mL)/(mg/kg)
AUC—% Extrap—obs [6]: 0.552%
Cl_obs [6]: 23.1 mL/min/kg
AUClast/D [7]: 844 (ng · h/mL)/(mg/kg)
AUC—% Extrap—obs [7]: 0.599%
Cl_obs [7]: 19.6 mL/min/kg
AUClast/D [8]: 1367 (ng · h/mL)/(mg/kg)
AUC—% Extrap—obs [8]: 0.915%
Cl_obs [8]: 12.1 mL/min/kg
AUClast/D [9]: 977 (ng · h/mL)/(mg/kg)
AUC—% Extrap—obs [9]: 0.689%
Cl_obs [9]: 18.3 mL/min/kg
